Test results from patent US20180273528A1 (LES LABORATOIRES SERVIER, priority 2015, published 2018).

What was measured:
[1] = target: T1, His-TEV-DYRK1A Kinase domain (aa127-485) (Homo sapiens, UniProt Q13627); assay: Kinase ADP assay (ADP Hunter), DYRK1A kinase domain; type: biochemical; settings: 20 μM ATP
T1 construct: His-TEV-DYRK1A Kinase domain (aa127-485); His tag (N); TEV protease cleavage site (N)
Description: The enzyme reaction was conducted in assay buffer (pH 7.4), containing 15 mM Hepes; 20 mM NaCl; 1 mM EGTA; 10 mM MgCl2; 0.02% Tween20 and 0.1 mg/ml Bovine-y-globulin. Test compounds of the invention were added in reaction buffer in a range of concentrations for 10 minutes at 30° C. in the presence of 20 nM DYRK1A enzyme, 40 μM peptide substrate and 20 μM ATP. Detection reagents (DiscoveRx 90-0083), ADP Hunter Plus Reagent A and then ADP Hunter Plus Reagent B were added. After a following 20 minutes incubation at 30° C., ADP Hunter Plus Stop Solution was added. The fluorescence intensity was measured at 590 nm.

DYRK1A [2] = target: T2, DYRK1A (Homo sapiens, UniProt Q13627); assay: Kinase TR-FRET assay, DYRK1A; type: biochemical; set-up: full-length, wild-type human DYRK1A (NM_001396) with an HA tag; expressed in transfected cells; host or cells: human U2-OS osteosarcoma cells, transient transfection of a pcDNA3.1 plasmid; settings: full-length human kinase, 10 μM ATP
Description: Inhibition of the enzymatic activity of human kinases was evaluated in a Time-Resolved Fluorescence Resonance Energy Transfer (TR-FRET) assay in 384-well reaction plates. […] Test compounds of the invention were added in reaction buffer at a range of concentrations from 0.1 nM to 30 μM. Following addition of EDTA (Sigma E7889, 10 mM) to stop the reaction, Europium-labelled mouse monoclonal antibody recognizing phospho-Thr232 in MBP (Perkin Elmer TRF0201, 1 nM) was added.

DYRK1A [3] = target: T2, DYRK1A; assay: Cellular DYRK1 autophosphorylation assay in U2-OS cells; type: cell-based; set-up: full-length, wild-type human DYRK1A (NM_001396) with an HA tag; expressed in transfected cells; host or cells: human U2-OS osteosarcoma cells, transient transfection of a pcDNA3.1 plasmid; settings: U2-OS cells transfected with HA-tagged human DYRK1A, 5 hours exposure; read-out: IC50 (μM) P-Ser520-Dyrk1A -Cell assay
Description: On day 2, cells were exposed to a range of concentrations of the test compounds of the invention for 5 hours. […] The relative levels of phospho-Ser520-DYRK1A were assayed using either western blotting or the Mesoscale ELISA platform. For analysis by western blot, lysates were diluted into Laemmli sample buffer (Bio-Rad) containing 5% v/v β-mercaptoethanol, heated for 5 min at 95° C., and resolved on Tris-glycine gels or NuPage Bis-Tris gels (Novex; Invitrogen). Biotinylated molecular weight standards (Cell Signaling Technology) were included in all gels. Proteins were transferred to nitrocellulose membranes (Hybond, ECL; Amersham), which were blocked in Tris-buffered saline/0.1% tween 20 (TBST) containing 5% milk, and probed at 4° C. overnight with anti-phospho-Ser520-DYRK1A antibody (Eurogentec SE6974-75; 0.23 μg/ml in 5% BSA) or anti DYRK1A antibody (Abnova H00001859; 0.5 μg/ml in 5% milk). Peroxidase-conjugated secondary antibodies were diluted into 5% milk and applied to membranes for 1 h at 20° C. Chemiluminescence detection was performed using the ECL plus western blotting detection kit (Amersham) and was recorded on ECL plus hyperfilm (Amersham). Blots were scanned using the Bio-Rad GS-800 calibrated densitometer and quantitative analysis of western blots was performed using TotalLab software (Amersham). IC50 values for inhibition of phospho-Ser520-DYRK1A were calculated from dose-response curves plotting the ratio between phospho-Ser520-DYRK1A and total DYRK1A signals at each concentration. […] Anti-phospho-Ser520-DYRK1A antibody (Eurogentec SE6974-75; […]) and anti DYRK1A antibody (Abnova H00001859; 3 μg/ml) was then added for 1 hour at RT, followed by addition of Sulfa-TAG anti-rabbit detection antibody (ref MSD R32AB; 1 μg/ml) and Sulfa-TAG anti-mouse detection antibody (ref MSD R32-AC-1; 1 μg/ml). After a further 1 hour, Read Buffer was added and plates were read on the Sector Imager 2400 (Mesoscale). IC50 values for inhibition of phospho-Ser520-DYRK1A were calculated from dose-response curves.

Structure (SMILES) | IC50 [1] | IC50 (DYRK1A [2]) | IC50 (DYRK1A [3])
Cc1nc2ccc(-c3cc(N)nc(N)c3)nc2n1Cc1ccccc1 [Example 8, 4-(3-benzyl-2-methyl-3H-imidazo[4,5-b]pyridin-5-yl)pyridine-2,6-diamine] | 0.128 µM | 0.061 µM | 
Cc1nc2ccc(-c3cc(N)nc(N)c3)nc2n1[C@H]1C[C@H]2C[C@@H]([C@@H]1C)C2(C)C [Example 16, 4-[2-methyl-3-[(1S,2S,3S,5R)-2,6,6-trimethylbicyclo[3.1.1]hept-3-yl]-3H-imidazo[4,5-b]pyridin-5-yl]pyridine-2,6-diamine] | 0.367 µM | 0.153 µM | 
Cc1nc2ccc(-c3cc(N)nc(N)c3)nc2n1CC12CC3CC(CC(C3)C1)C2 [Example 22, 4-{2-methyl-3-tricyclo[3.3.1.1^3,7]dec-1-ylmethyl-3H-imidazo[4,5-b]pyridin-5-yl}pyridine-2,6-diamine] | 0.364 µM | 0.069 µM | 
Cc1cc([C@@H](C)n2c(C)nc3ccc(-c4cc(N)nc(N)c4)nc32)ccn1 [Example 32, 4-{2-methyl-3-[(I R)-1-(2-methylpyridin-4-yl)ethyl]-3H-imidazo[4,5-b]pyridin-5-yl}pyridine-2,6-diamine] | 0.037 µM | 0.095 µM | 
CCC(C)n1c(C)nc2ccc(-c3cc(N)nc(N)c3)nc21 (stereo not drawn) [Example 33, 4-[3-(butan-2-yl)-2-methyl-3H-imidazo[4,5-b]pyridin-5-yl]pyridine-2,6-diamine] | 0.018 µM | 0.045 µM | 
CCOC(=O)N1CCC(n2c(C)nc3ccc(-c4cc(N)nc(N)c4)nc32)CC1 [Example 35] | 0.008 µM | 0.012 µM | 
Cc1nc2ccc(-c3cc(N)nc(N)c3)nc2n1CC(O)CO (stereo not drawn) [Example 37, 3-[5-(2,6-diaminopyridin-4-yl)-2-methyl-3H-imidazo[4,5-b]pyridin-3-yl]propane-1,2-diol] | 0.027 µM | 0.052 µM | 
Cc1nc2ccc(-c3cc(N)nc(N)c3)nc2n1C1CCN(C(=O)C(C)C)CC1 [Example 38, 1-{4-[5-(2,6-diaminopyridin-4-yl)-2-methyl-3H-imidazo[4,5-b]pyridin-3-yl]piperidin-1-yl}-2-methylpropan-1-one] | 0.008 µM | 0.028 µM | 
Cc1nc2ccc(-c3cc(N)nc(N)c3)nc2n1CC(C)(C)Oc1ccccc1 [Example 116, 4-[2-methyl-3-(2-methyl-2-phenoxypropyl)-3H-imidazo[4,5-b]pyridin-5-yl]pyridine-2,6-diamine] | 0.056 µM |  | 0.267 µM
Cc1cccc(O[C@@H](C)Cn2c(C)nc3ccc(-c4cc(N)nc(N)c4)nc32)c1 [Example 127, 4-{2-methyl-3-[(2S)-2-(3-methylphenoxy)propyl]0.3H-imidazo[4,5-b]pyridin-5-yl}pyridine-2,6-diamine] | 0.015 µM |  | 0.089 µM
Cc1nc2ccc(-c3cc(N)nc(N)c3)nc2n1CCCOc1ccccc1 [Example 143, 4-[2-methyl-3-(3-phenoxypropyl)-3H-imidazo[4,5-b]pyridin-5-yl]pyridine-2,6-diamine] | 0.013 µM |  | 0.037 µM
Cc1nc2ccc(-c3cc(N)nc(N)c3)nc2n1CCOc1ccc(Cl)cn1 [Example 164, 4-(3-{2-[(5-chloropyridin-2-yl)oxy]ethyl}-2-methyl-3H-imidazo[4,5-b]pyridin-5-yl)pyridine-2,6-diamine] | 0.032 µM |  | 0.152 µM
Cc1nc2ccc(-c3cc(N)nc(N)c3)nc2n1CCOc1ncccc1Cl [Example 166, 4-(3-{2-[(3-chloropyridin-2-yl)oxy]ethyl}-2-methyl-3H-imidazo[4,5-b]pyridin-5-yl)pyridine-2,6-diamine] | 0.085 µM |  | 0.25 µM
Cc1nc2ccc(-c3cc(N)nc(N)c3)nc2n1CCOc1cccc(F)n1 [Example 167, 4-(3-{2-[(6-fluoropyridin-2-yl)oxy]ethyl}-2-methyl-3H-imidazo[4,5-b]pyridin-5-yl)pyridine-2,6-diamine] | 0.011 µM |  | 0.011 µM
Cc1nc2ccc(-c3cc(N)nc(N)c3)nc2n1CCOc1ccc(Br)cn1 [Example 170, 4-(3-{2-[(5-bromopyridin-2-yl)oxy]ethyl}-2-methyl-3H-imidazo[4,5-b]pyridin-5-yl)pyridine-2,6-diamine] | 0.035 µM |  | 0.131 µM
Cc1nc2ccc(-c3cc(N)nc(N)c3)nc2n1CCOc1ccc(F)cn1 [Example 171, 4-(3-{2-[(5-fluoropyridin-2-yl)oxy]ethyl}-2-methyl-3H-imidazo[4,5-b]pyridin-5-yl)pyridine-2,6-diamine] | 0.018 µM |  | 0.109 µM
Cc1nc2ccc(-c3cc(N)nc(N)c3)nc2n1CCOc1cccc(CF)n1 [Example 172, 4-[3-(2-{[6-(fluoromethyl)pyridin-2-yl]oxy}ethyl)-2-methyl-3H-imidazo[4,5-b]pyridin-5-yl]pyridine-2,6-diamine] | 0.007 µM |  | 0.092 µM
Cc1nc2ccc(-c3cc(N)nc(N)c3)nc2n1CCOc1cccc(C(F)F)n1 [Example 173, 4-[3-(2-{[6-(difluoromethyl)pyridin-2-yl]oxy}ethyl)-2-methyl-3H-imidazo[4,5-b]pyridin-5-yl]pyridine-2,6-diamine] | 0.007 µM |  | 0.017 µM
Cc1nc2ccc(-c3cc(N)nc(N)c3)nc2n1CCOc1cccc(C(F)(F)F)n1 [Example 194, 4-[2-methyl-3-(2-{[6-(trifluoromethyl)pyridin-2-yl]oxy}ethyl)-3H-imidazo[4,5-b]pyridin-5-yl]pyridine-2,6-diamine] | 0.007 µM |  | 0.02 µM
Cc1cccc(OCCn2c(C)nc3ccc(-c4cc(N)nc(N)c4)nc32)n1 [Example 195, 4-(2-methyl-3-{2-[(6-methylpyridin-2-yl)oxy]ethyl}-3H-imidazo[4,5-b]pyridin-5-yl)pyridine-2,6-diamine] | 0.013 µM |  | 0.106 µM
Cc1nc2ccc(-c3cc(N)nc(N)c3)nc2n1CCOc1cccc(N)n1 [Example 196, 4-(3-{2-[(6-aminopyridin-2-yl)oxy]ethyl}-2-methyl-3H-imidazo[4,5-b]pyridin-5-yl)pyridine-2,6-diamine] | 0.012 µM |  | 0.141 µM
Cc1nc2ccc(-c3cc(N)nc(N)c3)nc2n1CCOc1cccc(C#N)n1 [Example 197, 6-{2-[5-(2,6-diaminopyridin-4-yl)-2-methyl-3H-imidazo[4,5-b]pyridin-3-yl]ethoxy}pyridine-2-carbonitrile] | 0.007 µM |  | 0.054 µM
Cc1ccc(OCCn2c(C)nc3ccc(-c4cc(N)nc(N)c4)nc32)cc1 [Example 208, 4-{2-methyl-3-[2-(4-methylphenoxy)ethyl]-3H-imidazo[4,5-b]pyridin-5-yl}pyridine-2,6-diamine] | 0.016 µM |  | 0.155 µM
Cc1nc2ccc(-c3cc(N)nc(F)c3)nc2n1C1CC(F)(F)C1 [Example 240, 4-[3-(3,3-difluorocyclobutyl)-2-methyl-3H-imidazo[4,5-b]pyridin-5-yl]-6-fluoropyridin-2-amine] | 0.016 µM |  | 0.153 µM
